Data published in PMC8310277 (Viruses, 2021).
Where a SMILES comes first, the peptide text is derived from it. Bridges are numbered along the chain shown (N, C = ends). Where no end group is shown, it is not given here.

B1: pro-HD5 (protein, UniProt Q01523 20-94, looked up)
pro-form: ESLQERADEATTQKQSGEDNQDLAISFAGNGLSALRTSGSQARATCYCRTGRCATRESLSGVCEISGRLYRLCCR
modifications: pro-form

Legend:
[1] = test system: pseudotyped SARS-CoV-2 viruses in intestinal epithelial Caco-2 cells; settings: 25 μg/mL
[2] = test system: pseudotyped viruses expressing SARS-CoV-2 spike proteins (Wuhan-Hu-1)
[3] = test system: pseudotyped SARS-CoV-2 viruses in lung epithelial A549 cells; type: cell-based; settings: 25 μg/mL
[4] = test system: HEK 293T-hACE2 cells; test: Cytotoxicity assay (MTS); settings: 1-50 μg/mL, 24 h; hACE2-expressing HEK293T cells; O.D. 490 nm; 4-6 samples

Row | Molecule | cytotoxicity (cell viability, MTS, in words) [4] | anti-SARS-CoV-2 activity (in words) [2] | other results
1 | CC[C@H](C)[C@@H]1NC(=O)[C@H](CCC(=O)O)NC(=O)[C@@H]2CSSC[C@@H]3NC(=O)[C@H](Cc4ccc(O)cc4)NC(=O)[C@@H](NC(=O)[C@@H](NC(=O)[C@H](C)N)[C@@H](C)O)CSSC[C@@H](C(=O)N[C@@H](CCCNC(=N)N)C(=O)O)NC(=O)[C@H](CSSC[C@H](NC(=O)[C@H](CCCNC(=N)N)NC(=O)CNC(=O)[C@H]([C@@H](C)O)NC(=O)[C@H](CCCNC(=N)N)NC3=O)C(=O)N[C@@H](C)C(=O)N[C@@H]([C@@H](C)O)C(=O)N[C@@H](CCCNC(=N)N)C(=O)N[C@@H](CCC(=O)O)C(=O)N[C@@H](CO)C(=O)N[C@@H](CC(C)C)C(=O)N[C@@H](CO)C(=O)NCC(=O)N[C@@H](C(C)C)C(=O)N2)NC(=O)[C@H](CC(C)C)NC(=O)[C@H](CCCNC(=N)N)NC(=O)[C@H](Cc2ccc(O)cc2)NC(=O)[C@H](CC(C)C)NC(=O)[C@H](CCCNC(=N)N)NC(=O)CNC(=O)[C@H](CO)NC1=O [HD5] (H-ATCYCRTGRCATRESLSGVCEISGRLYRLCCR-OH; disulfide 3-31, 5-20, 10-30 (inferred); N-terminus and C-terminus assumed) | not cytotoxic | – | anti-SARS-CoV-2 activity in Caco-2 cells (in words) [1]: exhibited anti-SARS-CoV-2 activity; post-entry effect on infection (in words) [2]: None of the tested defensins affected infection after viral entry; protection by pre-treatment of cells (in words) [2]: partially blocked viral infection; suppression of SARS-CoV-2 infection [2]: 60%; inhibition of the earlier Wuhan strain ([2]; pseudotyped viruses expressing spike proteins (Wuhan-Hu-1, 48 h, 50 μg/mL)): 96%; anti-SARS-CoV-2 activity in A549 cells (in words) [3]: exhibited anti-SARS-CoV-2 activity
2 | HBD5 (GLDFSQPFPSGEFAVCESCKLGRGKCRKECLENEKPDGNCRLNFLCCRQRI; ends and bridges not checked; cysteine pairing not given here; UniProt Q8NG35 28-78, looked up) | – | did not effectively inhibit viral infection | –
3 | HBD6 (FFDEKCNKLKGTCKNNCGKNEELIALCQKSLKCCRTIQPCGSIID; ends and bridges not checked; cysteine pairing not given here; UniProt Q8N104 21-65, looked up) | – | did not effectively inhibit viral infection | –
4 | HD6 | not cytotoxic | only blocked SARS-CoV-2 infection at the highest concentration tested | –
5 | HNP4 (VCSCRLVFCRRTELRVGNCLIGGVSFTYCCTRV; ends and bridges not checked; cysteine pairing not given here; UniProt P12838 64-96, looked up) | – | substantially less potent | –
6 | B1 | – | no anti-SARS-CoV-2 activity | –
